From PubChem BioAssay AID1963831 (Molecular Pharmacology Branch, DTP, NCI, 2024)

Tested on: 889142-216-R-J1-PDC complex spheroid viability
Assay: Anticancer human tumor 889142-216-R-J1-PDC patient-derived bladder carcinoma cell line growth inhibition [POLQ]
Settings: for IC50: curve of first compound; for viability, T/C: stronger effect = lower value; active = viability on the fitted dose curve at most 10% of control; inactive = the rest
In short: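 PDC + HUVEC + MSC complex spheroids; POLQ inhibitors ± partner drugs; top conc. at/near clinical Cmax, else 10 microM (SN-38 1 microM), half-log dilutions; 37 degrees C, 5% CO2.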

[1] = second compound 0.0316 µM, first compound 0.0316 µM
[2] = second compound 0.0316 µM, first compound 0.1 µM
[3] = second compound 0.0316 µM, first compound 0.316 µM
[4] = second compound 0.0316 µM, first compound 1 µM
[5] = second compound 0.0316 µM, first compound 3.16 µM
[6] = second compound 0.0316 µM, first compound 10 µM
[7] = second compound 0.1 µM, first compound 0.0316 µM
[8] = second compound 0.1 µM, first compound 0.1 µM
[9] = second compound 0.1 µM, first compound 0.316 µM
[10] = second compound 0.1 µM, first compound 1 µM
[11] = second compound 0.1 µM, first compound 3.16 µM
[12] = second compound 0.1 µM, first compound 10 µM
[13] = second compound 0.316 µM, first compound 0.0316 µM
[14] = second compound 0.316 µM, first compound 0.1 µM
[15] = second compound 0.316 µM, first compound 0.316 µM
[16] = second compound 0.316 µM, first compound 1 µM
[17] = second compound 0.316 µM, first compound 3.16 µM
[18] = second compound 0.316 µM, first compound 10 µM
[19] = second compound 1 µM, first compound 0.0316 µM
[20] = second compound 1 µM, first compound 0.1 µM
[21] = second compound 1 µM, first compound 0.316 µM
[22] = second compound 1 µM, first compound 1 µM
[23] = second compound 1 µM, first compound 3.16 µM
[24] = second compound 1 µM, first compound 10 µM
[25] = second compound 3.16 µM, first compound 0.0316 µM
[26] = second compound 3.16 µM, first compound 0.1 µM
[27] = second compound 3.16 µM, first compound 0.316 µM
[28] = second compound 3.16 µM, first compound 1 µM
[29] = second compound 3.16 µM, first compound 3.16 µM
[30] = second compound 3.16 µM, first compound 10 µM
[31] = second compound 10 µM, first compound 0.0316 µM
[32] = second compound 10 µM, first compound 0.1 µM
[33] = second compound 10 µM, first compound 0.316 µM
[34] = second compound 10 µM, first compound 1 µM
[35] = second compound 10 µM, first compound 3.16 µM
[36] = second compound 10 µM, first compound 10 µM
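Also: spheroids exposed to compounds for seven days.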
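For viability, T/C in this document: 100% = DMSO vehicle control viability.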

C=CC(=O)N1CCN(c2nc(=O)n(-c3c(C)ccnc3C(C)C)c3nc(-c4c(O)cccc4F)c(F)cc23)C(C)C1 (stereo unspecified) + COC1C(OC(N)=O)C(O)C(Oc2ccc3c(O)c(NC(=O)c4ccc(O)c(CC=C(C)C)c4)c(=O)oc3c2C)OC1(C)C
> 10 µM: IC50 (second compound 0.0316 µM) | IC50 (second compound 0.1 µM) | IC50 (second compound 0.316 µM) | IC50 (second compound 1 µM) | IC50 (second compound 3.16 µM) | IC50 (second compound 10 µM)
inactive: viability, T/C [1] 111% | viability, T/C [2] 114% | viability, T/C [3] 121% | viability, T/C [4] 111% | viability, T/C [5] 131% | viability, T/C [6] 88.7% | viability, T/C [7] 113% | viability, T/C [8] 116% | viability, T/C [9] 116% | viability, T/C [10] 146% | viability, T/C [11] 127% | viability, T/C [12] 82.4% | viability, T/C [13] 111% | viability, T/C [14] 133% | viability, T/C [15] 103% | viability, T/C [16] 125% | viability, T/C [17] 135% | viability, T/C [18] 78% | viability, T/C [19] 97.3% | viability, T/C [20] 123% | viability, T/C [21] 126% | viability, T/C [22] 109% | viability, T/C [23] 112% | viability, T/C [24] 103% | viability, T/C [25] 98.3% | viability, T/C [26] 124% | viability, T/C [27] 115% | viability, T/C [28] 132% | viability, T/C [29] 123% | viability, T/C [30] 82.7% | viability, T/C [31] 115% | viability, T/C [32] 102% | viability, T/C [33] 112% | viability, T/C [34] 113% | viability, T/C [35] 145% | viability, T/C [36] 85.3%

CC1COCCN1c1cc(C2(O)CC3CCC(C2)O3)c2cnn(-c3ccn[nH]3)c2n1 (stereo unspecified) + COC1C(OC(N)=O)C(O)C(Oc2ccc3c(O)c(NC(=O)c4ccc(O)c(CC=C(C)C)c4)c(=O)oc3c2C)OC1(C)C
0.132 µM: IC50 (second compound 0.1 µM)
0.125 µM: IC50 (second compound 0.0316 µM)
inactive: viability, T/C [1] 64.3% | viability, T/C [2] 50.6% | viability, T/C [3] 40.6% | viability, T/C [4] 32.7% | viability, T/C [5] 26.2% | viability, T/C [6] 14.7% | viability, T/C [7] 69.9% | viability, T/C [8] 50.2% | viability, T/C [9] 38.6% | viability, T/C [10] 32.5% | viability, T/C [11] 27.5% | viability, T/C [12] 15.2% | viability, T/C [13] 66.4% | viability, T/C [14] 53.6% | viability, T/C [15] 40.2% | viability, T/C [16] 37.5% | viability, T/C [17] 33.3% | viability, T/C [18] 13.2% | viability, T/C [19] 77.4% | viability, T/C [20] 54.9% | viability, T/C [21] 42.4% | viability, T/C [22] 32.2% | viability, T/C [23] 29.5% | viability, T/C [24] 12.7% | viability, T/C [25] 64.3% | viability, T/C [26] 54.5% | viability, T/C [27] 40.5% | viability, T/C [28] 39.2% | viability, T/C [29] 25.2% | viability, T/C [30] 14.1% | viability, T/C [31] 65.2% | viability, T/C [32] 43.2% | viability, T/C [33] 39.2% | viability, T/C [34] 30.6% | viability, T/C [35] 30.1% | viability, T/C [36] 13.9%
0.195 µM: IC50 (second compound 1 µM)
0.18 µM: IC50 (second compound 0.316 µM)
0.0933 µM: IC50 (second compound 10 µM)
0.169 µM: IC50 (second compound 3.16 µM)

COc1cc2cc(C(=O)CCC(=O)O)sc2cc1OC + COC1C(OC(N)=O)C(O)C(Oc2ccc3c(O)c(NC(=O)c4ccc(O)c(CC=C(C)C)c4)c(=O)oc3c2C)OC1(C)C
> 10 µM: IC50 (second compound 0.0316 µM) | IC50 (second compound 0.1 µM) | IC50 (second compound 0.316 µM) | IC50 (second compound 1 µM) | IC50 (second compound 3.16 µM) | IC50 (second compound 10 µM)
inactive: viability, T/C [1] 95.1% | viability, T/C [2] 93% | viability, T/C [3] 82.4% | viability, T/C [4] 114% | viability, T/C [5] 109% | viability, T/C [6] 70% | viability, T/C [7] 103% | viability, T/C [8] 106% | viability, T/C [9] 102% | viability, T/C [10] 96.9% | viability, T/C [11] 92.5% | viability, T/C [12] 81.1% | viability, T/C [13] 118% | viability, T/C [14] 120% | viability, T/C [15] 116% | viability, T/C [16] 90.6% | viability, T/C [17] 110% | viability, T/C [18] 83.6% | viability, T/C [19] 113% | viability, T/C [20] 106% | viability, T/C [21] 121% | viability, T/C [22] 113% | viability, T/C [23] 118% | viability, T/C [24] 83.9% | viability, T/C [25] 91.2% | viability, T/C [26] 113% | viability, T/C [27] 103% | viability, T/C [28] 102% | viability, T/C [29] 111% | viability, T/C [30] 101% | viability, T/C [31] 103% | viability, T/C [32] 93.2% | viability, T/C [33] 111% | viability, T/C [34] 92.8% | viability, T/C [35] 103% | viability, T/C [36] 88.2%
